PubChem BioAssay (NCI)
“And” between values parts separate entries of the source, which are not always exact repeats. Equal entries are not always repeated.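 The compound was tested at five concentrations on cells cultured in 96-well plates, with a 48-hour exposure period. The concentration for 50% growth inhibition is given as GI50. TGI: total growth inhibition.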

Legend:
Assay in all cases: NCI tumour cell line growth inhibition, 48 h
MDA-N = tested on: MDA-N
P388 leukemia = tested on: P388 leukemia
DMS 273 small cell lung = tested on: DMS 273 small cell lung
HOP-18 NSCLC = tested on: HOP-18 NSCLC
XF 498 CNS = tested on: XF 498 CNS
KM20L2 colon = tested on: KM20L2 colon
SNB-78 CNS = tested on: SNB-78 CNS
RXF-631 renal = tested on: RXF-631 renal
LXFL 529 NSCLC = tested on: LXFL 529 NSCLC
M19-MEL melanoma = tested on: M19-MEL melanoma

| SMILES | TGI (DMS 273 small cell lung) | TGI (HOP-18 NSCLC) | TGI (XF 498 CNS) | TGI (KM20L2 colon) | TGI (SNB-78 CNS) | TGI (RXF-631 renal) | TGI (LXFL 529 NSCLC) | TGI (M19-MEL melanoma) | other results |
| --- | --- | --- | --- | --- | --- | --- | --- | --- | --- |
| CC(O)C1OC(O)C2OC(C)(C)OC12 (stereo not drawn) |  |  |  |  |  |  |  |  | TGI (MDA-N): > 100 µM |
| Cc1[nH]c(=O)[nH]c(=O)c1N(CCF)CCCl | 330 µM and 470 µM and 560 µM | 927 µM and 2060 µM and 1190 µM | 679 µM and 554 µM | 455 µM and 1280 µM and 619 µM | 1000 µM and 1400 µM and 1210 µM |  |  |  | GI50 (P388 leukemia): 190 µM and 58.3 µM and 223 µM; TGI (P388 leukemia): 485 µM and 1330 µM and 791 µM; TGI (MDA-N): 828 µM; GI50 (DMS 273 small cell lung): 113 µM and 122 µM and 189 µM; GI50 (HOP-18 NSCLC): 401 µM and 719 µM and 415 µM; GI50 (XF 498 CNS): 334 µM and 198 µM; GI50 (KM20L2 colon): 194 µM and 429 µM; GI50 (SNB-78 CNS): 435 µM |
| CCC/C(=N\NC(=S)N1CCN(c2ccccn2)CC1)c1ccccn1 | 1.37 µM and 1.42 µM | 0.68 µM and 1.15 µM | 0.302 µM | 1.58 µM | > 10 µM and 4.24 µM | > 10 µM and 2.34 µM | 0.0757 µM and 0.241 µM | 1.32 µM and 1.74 µM | GI50 (RXF-631 renal): 0.0384 µM; TGI (MDA-N): 1.92 µM; GI50 (HOP-18 NSCLC): 0.0316 µM; GI50 (M19-MEL melanoma): 0.0534 µM; GI50 (SNB-78 CNS): 1.08 µM |
| CC1=CC=NN2C(=O)[C@H](C)C2C1 (stereo partly drawn) | > 100 µM | > 100 µM | > 100 µM | > 100 µM | > 100 µM | > 100 µM | > 100 µM | > 100 µM |  |
| CC(C)(C)[Si](C)(C)OCC1CCC(n2cnc3c(NC(=O)c4ccccc4)ncnc32)O1 (stereo not drawn) |  |  |  |  |  |  |  |  | TGI (MDA-N): 30.9 µM |
| COc1ccc2[nH]cc(CCNC(C)=O)c2c1 | > 100 µM | > 100 µM | > 100 µM | > 100 µM | > 100 µM |  | > 100 µM | > 100 µM |  |
| O=C(Cc1nc2ccccc2s1)C(=O)Nc1ccc(Cl)cc1 | > 100 µM | > 100 µM |  | > 100 µM | > 100 µM |  | > 100 µM | > 100 µM |  |
| COc1cccc(N2C(=O)c3c(c4[nH]c5ccccc5c4c4ccc(C(C)(C)C)cc34)C2=O)c1 | > 100 µM | > 100 µM | > 100 µM | > 100 µM | > 100 µM | > 100 µM | > 100 µM | > 100 µM |  |
| COc1cc(Nc2cnc3cc(C(F)(F)F)ccc3n2)cc(OC)c1OC | > 100 µM | > 100 µM | > 100 µM | > 100 µM | > 100 µM | > 100 µM | > 100 µM | > 100 µM |  |
| CCN(CC)CCCN(c1cc(OC)cc2nccnc12)S(=O)(=O)c1ccc(C)cc1 | > 100 µM | > 100 µM | > 100 µM | > 100 µM |  | > 100 µM | > 100 µM | > 100 µM |  |
| COc1ccc(OCC(=O)O)c2c1CCC(C(C)C)C2=O (stereo not drawn) | > 100 µM | > 100 µM |  | > 100 µM | > 100 µM | > 100 µM | > 100 µM | > 100 µM |  |
| CC(=O)Nc1ccc(/C=C(\NC(=O)c2ccccc2)c2nc3ccc4c(c3[nH]2)C(=O)c2ccccc2C4=O)cc1 | > 100 µM | > 100 µM | > 100 µM | > 100 µM | > 100 µM |  | > 100 µM | > 100 µM |  |
| COc1nc2c(OC)cccc2c(OC)c1C=O | > 100 µM | > 100 µM | > 100 µM | > 100 µM |  |  |  | > 100 µM |  |
| O=C1NC(=O)C(C(=O)C(=O)Nc2ccc(Br)cc2)C(=O)N1 | > 100 µM | > 100 µM | > 100 µM | > 100 µM | > 100 µM | > 100 µM | > 100 µM | > 100 µM |  |
| CC(C)(C)NNC(=O)/C(=C/c1ccc(Oc2ccc(Cl)c(Cl)c2)cc1)NC(=O)c1ccccc1 | 58.3 µM | > 100 µM | > 100 µM | > 100 µM | > 100 µM | > 100 µM | > 100 µM | > 100 µM |  |
| O=S(=O)([O-])[O-].[OH3+].[OH3+].[OH3+].[Ru+2].c1ccccc1 | > 100 µM | > 100 µM | > 100 µM |  | > 100 µM |  | > 100 µM | > 100 µM | GI50 (DMS 273 small cell lung): > 100 µM; GI50 (LXFL 529 NSCLC): > 100 µM; GI50 (HOP-18 NSCLC): > 100 µM; GI50 (M19-MEL melanoma): > 100 µM; GI50 (XF 498 CNS): > 100 µM; GI50 (SNB-78 CNS): > 100 µM |
| CN(N=O)C(=O)Nc1c[nH]c(=O)[nH]c1=O |  |  |  |  |  |  |  |  | TGI (MDA-N): > 100 µM |
| CSC(=S)c1ccc(C(=S)SC)cc1 | > 100 µM | > 100 µM | > 100 µM | > 100 µM | > 100 µM | > 100 µM | > 100 µM | > 100 µM |  |
| CCCc1c2c([nH]c(=O)c1C)C(=O)c1[nH]c(=O)c(C)c(CCC)c1C2=O |  | > 100 µM |  |  | > 100 µM |  | > 100 µM | 9.52 µM |  |
| CCOC(=N)CC(=O)Nc1ccc(Cl)cc1 | > 100 µM |  | > 100 µM | > 100 µM | > 100 µM |  | > 100 µM | > 100 µM |  |
| CN(C)c1ccc(-c2cc(=O)c3ccccc3[nH]2)cc1 | > 100 µM |  |  | > 100 µM | > 100 µM |  | > 100 µM | > 100 µM |  |
| Cc1ccc(C)c(NC(=O)C(=O)C(c2cnc3ccc([N+](=O)[O-])cc3n2)[N+](=O)[O-])c1 (stereo not drawn) |  |  |  |  |  |  |  |  | TGI (MDA-N): > 100 µM |
| C/C(=N\NC(=S)N1CCCCCC1)c1nccnc1C | 11.4 µM | 76.8 µM | 9.89 µM | > 100 µM | > 100 µM |  | > 100 µM | 15.6 µM |  |

| SMILES | TGI (DMS 273 small cell lung) | TGI (HOP-18 NSCLC) | TGI (XF 498 CNS) | TGI (KM20L2 colon) | TGI (SNB-78 CNS) | TGI (RXF-631 renal) | TGI (LXFL 529 NSCLC) | TGI (M19-MEL melanoma) | other results |
| --- | --- | --- | --- | --- | --- | --- | --- | --- | --- |
| CN(C)CCCCN1CCc2c(n(C)c3ccccc23)C1=O | > 100 µM | > 100 µM | 43.6 µM | > 72.9 µM | > 100 µM |  | 35.1 µM | 69.6 µM | TGI (MDA-N): 18.3 µM and 34.2 µM |
| O=C(O)c1ccc(NC(=O)C2C(=O)C(=O)N(c3ccc(C(=O)O)cc3)C2=O)cc1 (stereo not drawn) | > 100 µM |  | > 100 µM | > 100 µM | > 100 µM |  |  | > 100 µM |  |
| Cc1ccc(S(=O)(=O)N/N=C(\CCN2CCCC2)CC(c2ccccc2)c2c(O)c3ccccc3oc2=O)cc1 (stereo not drawn) |  | > 100 µM | > 100 µM | > 100 µM | > 100 µM | > 100 µM | > 100 µM | > 100 µM |  |
| Cc1ccc(NC(c2ccccc2)c2ccc3cccnc3c2O)cc1 (stereo not drawn) |  |  |  |  |  |  |  |  | TGI (MDA-N): 17.7 µM |
| CC(=O)N(C)OC(=O)CC(=O)c1ccccc1 | > 100 µM |  | > 100 µM | > 100 µM | > 100 µM | > 100 µM | > 100 µM | > 100 µM |  |
| O=P(c1ccccc1)(c1ccccc1)C1CC=C(c2ccccc2)C2(CCCC2)C1 (stereo not drawn) | > 100 µM | 76.9 µM | > 100 µM | > 100 µM | > 100 µM | > 100 µM | > 100 µM | > 100 µM |  |
| COc1cc2oc(=O)cc(C)c2cc1[N+](=O)[O-] |  |  |  |  |  |  |  |  | TGI (MDA-N): 28.4 µM |
| CCCCCCCCCCCCCS(=O)(=O)O |  | > 100 µM | > 100 µM | > 100 µM | > 100 µM | > 100 µM | > 100 µM | > 100 µM |  |
| C[Si](C)(C)C#CCO[Si](C)(C)C |  |  |  |  |  |  |  |  | TGI (MDA-N): > 100 µM |
| Cc1cc2c(c3c1c1ccccc1n3C)C(=O)C=CC2=O | 55.9 µM |  | 37.9 µM |  | 98.7 µM |  | 16.7 µM |  | TGI (MDA-N): 62.5 µM |
| CC(Cn1c2c3ccccc3ccc2c2oc(=O)c3ccccc3c21)N(C)C (stereo not drawn) |  |  | > 100 µM | > 100 µM | > 100 µM |  | > 100 µM |  |  |
| O=C(Nc1ccc(Cl)c(C(F)(F)F)c1)C(=O)C(C(=O)/C=C/c1ccccc1)C1OC(=O)c2ccccc21 (stereo not drawn) | > 100 µM | > 100 µM | > 100 µM | > 100 µM | > 100 µM |  | > 100 µM | > 100 µM |  |
| C/C(CN1C(=O)c2ccccc2C1=O)=N\NS(=O)(=O)c1cccc([N+](=O)[O-])c1 | > 100 µM | > 100 µM | > 100 µM | > 100 µM | > 100 µM | > 100 µM | > 100 µM | > 100 µM |  |
| S=CN1CCCCC1 |  |  |  |  |  |  |  |  | TGI (MDA-N): > 100 µM |
| O=C1C2C(C(=O)N1O)N(Cc1ccccc1)C(=O)N2Cc1ccccc1 (stereo not drawn) |  |  | > 100 µM | > 100 µM | > 100 µM |  | > 100 µM | > 100 µM |  |
| CC(C)(C)[OH+][O-].[O-]c1ccc(Cl)cc1C=Nc1ccc(Cl)cc1[O-].[O]=[V] |  |  |  |  |  |  |  |  | GI50 (MDA-N): 7.92 µM; TGI (MDA-N): > 100 µM |
| CC(C)C(C(=O)O)N(CC1(O)OCC(O)C(O)C1O)N=O (stereo not drawn) | > 100 µM |  | > 100 µM | > 100 µM | > 100 µM | > 100 µM | > 100 µM | > 100 µM |  |
| CCNc1nnc(CSc2nc(-c3ccccc3)c(-c3ccccc3)[nH]2)s1 | 42.9 µM |  |  | 46.1 µM | 96.3 µM |  | 64.8 µM | 32.1 µM |  |
| CCN1C(=O)C/C(=C\C(C)=O)Nc2ccccc21 | > 100 µM |  | > 100 µM |  | > 100 µM |  | > 100 µM | > 100 µM |  |
| Cc1ccc(NC(=O)c2[nH]c(=S)nc(N)c2-c2ccccc2C)cc1C | > 100 µM | > 100 µM | > 100 µM | > 100 µM | > 100 µM |  | > 100 µM | > 100 µM |  |
| CN/N=C(/Cc1occc(=O)c1O)C(=O)Nc1ccc(C)c(C)c1 |  |  |  | > 100 µM | > 100 µM |  | > 100 µM | > 100 µM |  |
| CC(=O)N1CCC2(C=Nc3ccccc32)CC1 | > 100 µM | > 100 µM | > 100 µM | > 100 µM | > 100 µM |  | > 100 µM | > 100 µM |  |
